According to publication PMC9516332 (Frontiers in Oncology, 2022):
Like-named read-outs stand apart in the source and are kept apart here.

System: 134 cancer cell lines
Experiment: Cell viability assay (ATPlite, 72 hours), IC50 on cancer cell line panel

COc1ccc(CN2C3CC2CN(c2ccc(-c4cc(OCC(C)(C)O)cn5ncc(C#N)c45)cn2)C3)cn1 [selpercatinib]
IC50 (Homo sapiens, MG-63, read-out: IC50 in cell proliferation assay, MG-63 cell line): 3.08 µM | IC50 (Homo sapiens, MIA PaCa-2, read-out: IC50 in cell proliferation assay, MIA PaCa-2 cell line): 3.4 µM | IC50 (Homo sapiens, MKN-45, read-out: IC50 in cell proliferation assay, MKN45 cell line (MET amplification)): > 31.6 µM | IC50 (Homo sapiens, MOLM-13, read-out: IC50 in cell proliferation assay, MOLM-13 cell line (FLT3 ITD)): 0.123 µM | IC50 (Homo sapiens, MOLT-4, read-out: IC50 in cell proliferation assay, MOLT-4 cell line): 1.67 µM | IC50 (Homo sapiens, MV4-11, read-out: IC50 in cell proliferation assay, MV4-11 cell line (FLT3 ITD)): 0.167 µM | IC50 (Homo sapiens, MeWo, read-out: IC50 in cell proliferation assay, MeWo cell line): 5.53 µM | IC50 (Homo sapiens, NCCIT, read-out: IC50 in cell proliferation assay, NCC-IT cell line): 1.58 µM | IC50 (Homo sapiens, NCI-H82, read-out: IC50 in cell proliferation assay, cell line NCI-H82): 3.23 µM | IC50 (Homo sapiens, NCI-H460, read-out: IC50 in cell proliferation assay, NCI-H460 cell line): 4.27 µM | IC50 (Homo sapiens, NCI-H661, read-out: IC50 in cell proliferation assay, NCI-H661 cell line): 8.68 µM | IC50 (Homo sapiens, NCI-H716, read-out: IC50 in cell proliferation assay, cell line NCI-H716 (FGFR2-COL14A1)): 0.262 µM | IC50 (Homo sapiens, NCI-H1650, read-out: IC50 in cell proliferation assay, NCI-H1650 cell line (EGFR exon19del)): 7.36 µM | IC50 (Homo sapiens, NCI-H1975, read-out: IC50 in cell proliferation assay, NCI-H1975 cell line (EGFR p.L858R + p.T790M)): 22.4 µM | IC50 (Homo sapiens, NCI-H2228, read-out: IC50 in cell proliferation assay, NCI-H2228 cell line (EML4-ALK)): 10.2 µM | IC50 (Homo sapiens, OVCAR-3, read-out: IC50 in cell proliferation assay, cell line OVCAR-3): 5.67 µM | IC50 (Homo sapiens, PFSK-1, read-out: IC50 in cell proliferation assay, cell line PFSK-1): > 31.6 µM | IC50 (Homo sapiens, RL95-2, read-out: IC50 in cell proliferation assay, cell line RL95-2 (EGFR p.A289V)): 2.28 µM | IC50 (Homo sapiens, RPMI-7951, read-out: IC50 in cell proliferation assay, cell line RPMI-7951 (BRAF p.V600E)): 5.59 µM | IC50 (Homo sapiens, RS4-11, read-out: IC50 in cell proliferation assay, cell line RS4;11): 1.63 µM | IC50 (Homo sapiens, Rec1, read-out: IC50 in cell proliferation assay, cell line REC-1): 7.32 µM | IC50 (Homo sapiens, SHP77, read-out: IC50 in cell proliferation assay, cell line SHP-77): 8.18 µM | IC50 (Homo sapiens, SK-BR-3, read-out: IC50 in cell proliferation assay, cell line SK-BR-3 (ERBB2 amplification)): 22.6 µM | IC50 (Homo sapiens, SK-N-AS, read-out: IC50 in cell proliferation assay, cell line SK-N-AS): 3.81 µM | IC50 (Homo sapiens, SK-N-FI, read-out: IC50 in cell proliferation assay, cell line SK-N-FI): 4 µM | IC50 (Homo sapiens, SK-N-MC, read-out: IC50 in cell proliferation assay, cell line SK-N-MC): 3.28 µM | IC50 (Homo sapiens, SK-N-SH, read-out: IC50 in cell proliferation assay, cell line SK-N-SH (ALK p.F1174L)): 2.59 µM | IC50 (Homo sapiens, SNU-5, read-out: IC50 in cell proliferation assay, cell line SNU-5 (MET amplification)): > 31.6 µM | IC50 (Homo sapiens, SNU-16, read-out: IC50 in cell proliferation assay, cell line SNU-16 (FGFR2 amplification)): 0.304 µM | IC50 (Homo sapiens, SNU-C2B, read-out: IC50 in cell proliferation assay, cell line SNU-C2B (EGFR p.R165Q)): > 31.6 µM | IC50 (Homo sapiens, SU-DHL-1, read-out: IC50 in cell proliferation assay, cell line SU-DHL-1 (NPM1-ALK)): 2.76 µM | IC50 (Homo sapiens, SU-DHL-6, read-out: IC50 in cell proliferation assay, cell line SU-DHL-6): 4.61 µM | IC50 (Homo sapiens, SUP-T1, read-out: IC50 in cell proliferation assay, cell line SUP-T1): 2.33 µM | IC50 (Homo sapiens, SW48, read-out: IC50 in cell proliferation assay, cell line SW48 (EGFR p.G719S)): 2.74 µM | IC50 (Homo sapiens, SW480, read-out: IC50 in cell proliferation assay, cell line SW480): 4.03 µM | IC50 (Homo sapiens, SW626, read-out: IC50 in cell proliferation assay, cell line SW626): > 31.6 µM | IC50 (Homo sapiens, SW780, read-out: IC50 in cell proliferation assay, cell line SW780 (FGFR3-BAIAP2L1)): 1.95 µM | IC50 (Homo sapiens, SW837, read-out: IC50 in cell proliferation assay, cell line SW837): 3.48 µM | IC50 (Homo sapiens, SW872, read-out: IC50 in cell proliferation assay, cell line SW872 (BRAF p.V600E)): 5.78 µM | IC50 (Homo sapiens, SW900, read-out: IC50 in cell proliferation assay, cell line SW900): 5.03 µM | IC50 (Homo sapiens, SW948, read-out: IC50 in cell proliferation assay, cell line SW948): 3.92 µM | IC50 (Homo sapiens, SW982, read-out: IC50 in cell proliferation assay, cell line SW982 (BRAF p.V600E)): 3.57 µM | IC50 (Homo sapiens, SW-620, read-out: IC50 in cell proliferation assay, cell line SW620): 2.62 µM | IC50 (Homo sapiens, T98G, read-out: IC50 in cell proliferation assay, cell line T98G): 2.69 µM | IC50 (Homo sapiens, TCC-SUP, read-out: IC50 in cell proliferation assay, cell line TCCSUP): 3.13 µM | IC50 (Homo sapiens, THP-1, read-out: IC50 in cell proliferation assay, cell line THP-1): > 31.6 µM | IC50 (Homo sapiens, U2OS, read-out: IC50 in cell proliferation assay, cell line U2OS): 4.78 µM | IC50 (Homo sapiens, U-87 MG, read-out: IC50 in cell proliferation assay, cell line U-87MG ATCC): > 31.6 µM | IC50 (Homo sapiens, U-118-MG, read-out: IC50 in cell proliferation assay, cell line U-118MG): 6.34 µM | IC50 (Homo sapiens, UMUC3, read-out: IC50 in cell proliferation assay, cell line UM-UC-3): 1.3 µM | IC50 (Hs766T, read-out: IC50 in cell proliferation assay, Hs 766T cell line): 4.97 µM | IC50 (L-82, read-out: IC50 in cell proliferation assay, L-82 cell line (NPM1-ALK)): 5.23 µM | IC50 (Rh30, read-out: IC50 in cell proliferation assay, cell line Rh30): 4.03 µM | IC50 (read-out: IC50 in cell proliferation assay, 11-18 cell line (EGFR p.L858R)): 4.08 µM | IC50 (read-out: IC50 in cell proliferation assay, Hs 852.T cell line): 5.9 µM | IC50 (read-out: IC50 in cell proliferation assay, JAR cell line): 4.4 µM | IC50 (read-out: IC50 in cell proliferation assay, cell line 5637): 4.53 µM | IC50 (read-out: IC50 in cell proliferation assay, cell line A-388): 9.59 µM | IC50 (read-out: IC50 in cell proliferation assay, cell line DB): 3.37 µM | IC50 (read-out: IC50 in cell proliferation assay, cell line DEL (NPM1-ALK)): 3.36 µM | IC50 (read-out: IC50 in cell proliferation assay, cell line ES-2 (BRAF p.V600E)): > 31.6 µM | IC50 (read-out: IC50 in cell proliferation assay, cell line PA-1): 1.82 µM | IC50 (read-out: IC50 in cell proliferation assay, cell line PC-3): 3.85 µM | IC50 (read-out: IC50 in cell proliferation assay, cell line RD): 6.94 µM | IC50 (read-out: IC50 in cell proliferation assay, cell line RKO (BRAF p.V600E)): 5.12 µM | IC50 (read-out: IC50 in cell proliferation assay, cell line RL): 2.06 µM | IC50 (read-out: IC50 in cell proliferation assay, cell line RT-4 (FGFR3-TACC3)): 1.38 µM | IC50 (read-out: IC50 in cell proliferation assay, cell line SR (NPM1-ALK)): 2.58 µM | IC50 (read-out: IC50 in cell proliferation assay, cell line T24): 5.15 µM | IC50 (read-out: IC50 in cell proliferation assay, cell line TT (RET p.C634W)): 0.019 µM | IC50 (read-out: IC50 in cell proliferation assay, cell line VA-ES-BJ): 2.79 µM
